Laboratory results taken from patent publication US20250186562A1, “TARGET SUBSTRATE PROTEIN DEGRADATION PLATFORM” (The Regents of the University of California, priority 2022, published 2025).
Non-standard residues stand in square brackets, D forms with d. Residues, ends and D or L forms follow the SMILES beside them. No end group written: not given here. ξ: configuration not given here. Tyr(3-NO2) = N[C@@H](Cc1ccc(O)c([N+](=O)[O-])c1)C(=O)O; dPhe(4-guanidino) = N=C(N)Nc1ccc(C[C@@H](N)C(=O)O)cc1; fluorescein = fluorescein attached to the C-terminus; Phe(4-guanidino) = N=C(N)Nc1ccc(C[C@H](N)C(=O)O)cc1; Tyr(3-F) = N[C@@H](Cc1ccc(O)c(F)c1)C(=O)O; Arg(Me2a) = CN(C)C(=N)NCCC[C@H](N)C(=O)O; Phe(4-NH2) = Nc1ccc(C[C@H](N)C(=O)O)cc1; His(τ-Me) = Cn1cnc(C[C@H](N)C(=O)O)c1; His(π-Me) = Cn1cncc1C[C@H](N)C(=O)O; 4Pal = N[C@@H](Cc1ccncc1)C(=O)O; 2Thi = N[C@@H](Cc1cccs1)C(=O)O; Ile(3ξ) = CCC(C)[C@H](N)C(=O)O

What was measured:
[1] = target: GST-Ubr-box of Ubr2 (Homo sapiens (Human), UniProt Q8IWV8); assay: Competition fluorescence polarization (FP) assay, GST-Ubr-box of Ubr2; format: binding; conditions: read-out: UBR2 Affinity Ki FP
Excerpt: (§1) Fluorescence Polarization (FP) assays were used to determine binding affinity of the peptidomimetic compounds for the Ubr box (FIGS. 4A-B). FIG. 1A depicts the mechanism of action of peptidomimetic compounds that include a linker. […] Binding affinities as determined by Structure Activity Relationship Studies (SARs) of additional peptidomimetic compounds to GST-Ubr-box of Ubr 1 and Ubr2 are shown in Table 1.
(§2) The FP assay uses a tetrapeptide with a sequence arginine-isoleucine-phenylalanine-serine (RIFS) with fluorescein attached to the C-terminus as tracer that was previously shown to bind to the Ubr-boxes of Ubr1 and Ubr2 with similar binding affinity. Assays were developed in 384-well plates, which were read on a Clariostar Reader. Signal-to-background ratio (S/B) was optimized by varying concentrations of GST-Ubr-box and tracer concentrations. GST-fusion proteins were used due to its larger size than Ubr-box alone to increase the FP effect. […] The optimized condition includes receptor concentration [GST-UBR1]=2 μM, tracer concentration [tracer]=9 nM, and the highest concentration of unlabeled peptidomimetic compound competitors at 200 μM with 3× serial dilutions.
(§3) Preliminary ITC measurements confirmed the FP measurements (FIG. 4C).

[2] = target: GST-Ubr-box of Ubr1 (Homo sapiens (Human), UniProt Q8IWV7); assay: Competition fluorescence polarization (FP) assay, GST-Ubr-box of Ubr1; format: binding; conditions: for Ki: [GST-UBR1]=2 μM, tracer 9 nM, read-out: UBR1 Affinity Ki FP
Excerpt: as §1, §2, §3

[3] = test system: Ubr-mediated GFP degradation (Ubiquitin-R-GFP model Ubr substrate); assay: R-GFP degradation in cells (fluorescent imaging); format: cell-based; conditions: cells expressing Ubiquitin-R-GFP
Excerpt: The peptidomimetic compound outcompetes the R-GFP model Ubr substrate for E3 binding, therefore preventing GFP degradation. The upper panels show fluorescent imaging of the cells and the lower panel show a bright field of the cells.

[4] = target: Ubr-box of Ubr1 (Homo sapiens (Human), UniProt Q8IWV7); assay: FP titration of GST-Ubr-box into tracer, Ubr1; format: binding; conditions: 9 nM tracer
Excerpt: as §2, §3

[5] = target: Ubr-box of Ubr2 (Homo sapiens (Human), UniProt Q8IWV8); assay: FP titration of GST-Ubr-box into tracer, Ubr2; format: binding; conditions: 9 nM tracer
Excerpt: as §2, §3

Sequence of GST-Ubr-box of Ubr1 (Q8IWV7 other isoform, or with tags, fused parts or gaps): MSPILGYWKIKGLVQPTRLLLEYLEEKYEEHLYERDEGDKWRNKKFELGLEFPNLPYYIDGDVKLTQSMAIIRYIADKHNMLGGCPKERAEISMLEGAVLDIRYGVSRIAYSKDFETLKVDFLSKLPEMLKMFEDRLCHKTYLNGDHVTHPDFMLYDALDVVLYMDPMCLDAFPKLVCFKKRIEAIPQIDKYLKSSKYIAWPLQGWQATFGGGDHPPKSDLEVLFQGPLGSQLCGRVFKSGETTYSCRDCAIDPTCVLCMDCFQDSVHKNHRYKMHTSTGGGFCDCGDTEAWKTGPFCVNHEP
Sequence of GST-Ubr-box of Ubr2 (Q8IWV8 other isoform, or with tags, fused parts or gaps): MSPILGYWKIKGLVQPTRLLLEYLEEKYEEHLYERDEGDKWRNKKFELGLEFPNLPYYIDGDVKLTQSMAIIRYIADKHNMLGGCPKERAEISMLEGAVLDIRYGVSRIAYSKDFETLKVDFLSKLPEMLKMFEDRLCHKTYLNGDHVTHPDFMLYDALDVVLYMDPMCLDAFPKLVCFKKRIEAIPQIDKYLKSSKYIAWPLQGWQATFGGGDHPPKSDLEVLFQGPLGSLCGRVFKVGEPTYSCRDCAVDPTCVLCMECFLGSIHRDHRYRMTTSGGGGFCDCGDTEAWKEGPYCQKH
Sequence of Ubr-box of Ubr1 (Q8IWV7 other isoform, or with tags, fused parts or gaps): as the sequence (Q8IWV7 other isoform, or with tags, fused parts or gaps) above
Sequence of Ubr-box of Ubr2 (Q8IWV8 other isoform, or with tags, fused parts or gaps): as the sequence (Q8IWV8 other isoform, or with tags, fused parts or gaps) above

Molecule	Ki [1] [µM]	Ki [2] [µM]	further results
CC[C@H](C)[C@H](NC(=O)[C@@H](N)Cc1ccncc1)C(=O)N[C@@H](Cc1ccccc1)C(N)=O [Compound 23] (H-[4Pal]-Ile-Phe-NH2)	> 100	> 100	
CC[C@H](C)[C@H](NC(=O)[C@@H](N)Cc1nn[nH]n1)C(=O)N[C@@H](Cc1ccccc1)C(N)=O [Compound 8]	> 100	> 100	
CC(C[C@H](NC(=O)[C@@H](N)CCCNC(=N)N)C(=O)N[C@@H](Cc1ccccc1)C(N)=O)C(F)(F)F (stereo partly shown) [Compound 26]	< 1	< 1	
CC[C@H](C)[C@H](NC(=O)[C@@H](N)Cc1cccs1)C(=O)N[C@@H](Cc1ccccc1)C(N)=O [Compound 21] (H-[2Thi]-Ile-Phe-NH2)	> 100	> 100	
N=C(NCCC[C@H](N)C(=O)N[C@@H](Cc1ccc(O)c(Cl)c1)C(=O)N[C@@H](Cc1ccccc1)C(N)=O)NCC(F)(F)F [Compound 20]	< 1	< 1	
CC[C@H](C)[C@H](NC(=O)[C@@H](N)CCCNC(=N)NCC(F)(F)F)C(=O)N[C@@H](Cc1ccccc1)C(N)=O [Compound 4]	< 1	< 1	concentration at which R-GFP degradation in cells is blocked [3]: > 1 µM
N=C(N)NCCC[C@H](N)C(=O)N[C@@H](Cc1ccc(O)c([N+](=O)[O-])c1)C(=O)N[C@@H](Cc1ccccc1)C(N)=O [Compound 1]	1 to 10	1 to 10	
CCC(C)[C@H](NC(=O)[C@@H](N)Cc1ccc(NC(C)=O)cc1)C(=O)N[C@@H](Cc1ccccc1)C(N)=O (stereo partly shown) [Compound 24] (H-[Phe(4-NH2)](Ac)-[Ile(3ξ)]-Phe-NH2)	10 to 100	10 to 100	
CN(C)C(=N)NCCC[C@H](N)C(=O)N1CCC[C@H]1C(=O)N[C@@H](Cc1ccccc1)C(N)=O [Compound 31] (H-[Arg(Me2a)]-Pro-Phe-NH2)	> 100	> 100	
CC[C@H](C)[C@H](NC(=O)[C@@H](N)Cc1ccc(N=C(N)N)cc1)C(=O)N[C@@H](Cc1ccccc1)C(N)=O [Compound 2] (H-[Phe(4-guanidino)]-Ile-Phe-NH2)	< 1	1 to 10	
CC[C@H](C)[C@H](NC(=O)[C@@H](N)Cc1cn(C)cn1)C(=O)N[C@@H](Cc1ccccc1)C(N)=O [Compound 13] (H-[His(τ-Me)]-Ile-Phe-NH2)	> 100	> 100	
CC[C@H](C)[C@H](NC(=O)[C@@H](N)Cc1cncn1C)C(=O)N[C@@H](Cc1ccccc1)C(N)=O [Compound 10] (H-[His(π-Me)]-Ile-Phe-NH2)	> 100	> 100	
CC[C@H](C)[C@H](NC(=O)[C@@H](N)CCC/N=C(\N)N(C)C)C(=O)N[C@@H](Cc1ccccc1)C(N)=O [Compound 32] (H-[Arg(Me2a)]-Ile-Phe-NH2)	1 to 10	1 to 10	
CNC(=N)N(C)CCC[C@H](N)C(=O)N[C@@H](Cc1ccc(O)c([N+](=O)[O-])c1)C(=O)N[C@@H](Cc1ccccc1)C(N)=O [Compound 12]	< 1	1 to 10	
COc1ccc(C[C@H](NC(=O)[C@H](N)Cc2ccc(N=C(N)N)cc2)C(=O)N[C@@H](Cc2ccccc2)C(N)=O)cc1 [Compound 16] (H-[dPhe(4-guanidino)]-Tyr(Me)-Phe-NH2)	< 1	< 1	
NCC(=O)N[C@@H](Cc1ccc(O)c([N+](=O)[O-])c1)C(N)=O [Compound 17] (H-Gly-[Tyr(3-NO2)]-NH2)	> 100	> 100	
CCNC(=N)N(CC)CCC[C@H](N)C(=O)N[C@H](C(=O)N[C@@H](Cc1ccccc1)C(N)=O)[C@@H](C)CC [Compound 9]	10 to 100	10 to 100	
CN(C)C(=N)NCCC[C@H](N)C(=O)N[C@@H](Cc1cscn1)C(=O)N[C@@H](Cc1ccccc1)C(N)=O [Compound 29]	1 to 10	1 to 10	

Molecule	Ki [1] [µM]	Ki [2] [µM]	further results
unlabeled tetrapeptide: unlabeled tetrapeptide (RIFS sequence without fluorescein tag) used as competitor [reference compound]			displacement of tracer [2]: Effective displacement of tracer
COc1ccc(C[C@H](NC(=O)[C@@H](N)CCCNC(=N)N(C)C)C(=O)N[C@@H](Cc2ccccc2)C(N)=O)cc1 [Compound 15] (H-[Arg(Me2a)]-Tyr(Me)-Phe-NH2)	< 1	< 1	
CNC(=N)N(C)CCC[C@H](N)C(=O)N[C@@H](Cc1ccc(O)c(C)c1)C(=O)N[C@@H](Cc1ccccc1)C(N)=O [Compound 7]	10 to 100	10 to 100	
CN(C)C(=N)NCCC[C@H](N)C(=O)N[C@@H](Cc1ccc(O)c([N+](=O)[O-])c1)C(=O)N[C@@H](Cc1ccccc1)C(N)=O [Compound 19] (H-[Arg(Me2a)]-[Tyr(3-NO2)]-Phe-NH2)	< 1	< 1	
CN(C)C(=N)NCCC[C@H](N)C(=O)N[C@@H](Cc1ccc(O)c(F)c1)C(=O)N[C@@H](Cc1ccccc1)C(N)=O [Compound 28] (H-[Arg(Me2a)]-[Tyr(3-F)]-Phe-NH2)	1 to 10	< 1	
CN(C)C(=N)NCCC[C@H](N)C(=O)N[C@@H](Cc1cccs1)C(=O)N[C@@H](Cc1ccccc1)C(N)=O [Compound 30]	1 to 10	< 1	
CC[C@H](C)[C@H](NC(=O)[C@@H](N)Cc1ccc(NC(N)=O)cc1)C(=O)N[C@@H](Cc1ccccc1)C(N)=O [Compound 5]	10 to 100	> 100	
COc1ccc(C[C@H](NC(=O)[C@@H](N)CCCNC(=N)NCC(F)(F)F)C(=O)N[C@@H](Cc2ccccc2)C(N)=O)cc1 [Compound 14]	< 1	< 1	
CC[C@H](C)[C@H](NC(=O)[C@H](Cc1ccccc1)NC(=O)[C@@H](N)Cc1ccncc1)C(N)=O [Compound 22] (H-[4Pal]-Phe-Ile-NH2)	> 100	> 100	
NC(=O)[C@H](Cc1ccccc1)NC(=O)[C@@H](N)Cc1ccc(O)c([N+](=O)[O-])c1 [Compound 18] (H-[Tyr(3-NO2)]-Phe-NH2)	> 100	> 100	
N=C(NCCC[C@H](N)C(=O)N[C@@H](Cc1ccc(O)c([N+](=O)[O-])c1)C(=O)N[C@@H](Cc1ccccc1)C(N)=O)NCC(F)(F)F [Compound 33]	< 1	< 1	
CNC(=N)N(C)CCC[C@H](N)C(=O)N[C@@H](Cc1ccc(O)c([N+](=O)[O-])c1)C(=O)N[C@@H](Cc1ccccc1)C(N)=O [Compound 11]	1 to 10	10 to 100	
CCC(C)C(NC(=O)[C@@H](N)CCCNC(=N)N)C(=O)N[C@@H](Cc1ccccc1)C(N)=O (stereo partly shown) [Compound 27]	1 to 10	1 to 10	
N=C(N)NCCC[C@H](N)C(=O)N[C@@H](Cc1ccc(O)c(Cl)c1)C(=O)N[C@@H](Cc1ccccc1)C(N)=O [Compound 25]	10 to 100	1 to 10	
CC[C@H](C)[C@H](NC(=O)[C@@H](N)CCONC(=N)N)C(=O)N[C@@H](Cc1ccccc1)C(N)=O [Compound 3]	10 to 100	10 to 100	
tracer: tetrapeptide arginine-isoleucine-phenylalanine-serine (RIFS) with fluorescein attached to the C-terminus as tracer (RIFS-fluorescein)			binding of tracer to Ubr-box of Ubr1 [4]: can bind; binding of tracer to Ubr-box of Ubr2 [5]: can bind
CC[C@H](C)[C@H](NC(=O)[C@@H](N)CCCN(C)C(=N)NC)C(=O)N[C@@H](Cc1ccccc1)C(N)=O [Compound 6]	> 100	> 100	
